Data on two compounds can be found in US5488060A, “Substituted thiadiazoles, compositions containing them and their use as antimicrobial and marine antifouling agents” (The Dow Chemical Company, priority 1994, dated 1996).

In brackets after ≈: the same amount, converted by molar mass. Like-named read-outs stand apart in the source and are kept apart here.

Assay [1] has as its system Klebsiella pneumoniae (Kp). Description: Minimum inhibitory concentration (MIC) in nutrient agar, Klebsiella pneumoniae. Format: cell-based. An outline of the steps: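 Bacteria were grown 24 h at 30° C in nutrient broth with shaking, then diluted to 10^8 CFU/mL. These suspensions were stamped onto dried nutrient agar plates, neutral (pH 6.8) and alkaline (pH 8.2), that held compound at final 500–1.0 ppm. The plates were incubated 48 h at 30° C.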

Another assay deals with marine organisms. Nature of the assay: Marine antifouling rating of coated test panels exposed to the marine environment. As to conditions: scale 10 (completely free of growth) to 0 (completely covered); for Marine Antifouling Rating, 6 Week Test, Top Panel / Marine Antifouling Rating, 6 Week Test, Bottom Panel: 6 weeks; for Marine Antifouling Rating, 6 Week Test, Top Panel / Marine Antifouling Rating, 10 Week Test, Top Panel: topside; for Marine Antifouling Rating, 6 Week Test, Bottom Panel / Marine Antifouling Rating, 10 Week Test, Bottom Panel: underside; for Marine Antifouling Rating, 10 Week Test, Top Panel / Marine Antifouling Rating, 10 Week Test, Bottom Panel: 10 weeks. The method, then:
Test panels are prepared from clear, rigid polyvinyl chloride film that is 0.381×10-3 m thick and has one textured surface. The test panels are 0.1524 m by 0.1524 m squares that have 0.00635 m holes punched at corners on 0.127 m centers. A 0.102 square template, with a 0.067 m diameter hole at the center, is attached to the center of the textured surface of the test panels.
A candidate marine antifoulant compound (1.0 g) is stirred into a resinous latex binder (9.0 g). A portion of the compound/binder mixture (1.5 g) is added to the center of the test panel and uniformly spread over the circular area inside the template.
Water is added dropwise as needed to properly spread the compound/binder mixture. The template prevents the compound/binder mixture from spreading beyond the uncovered area. […] The template is then removed. The test panel is then allowed to dry for 8 to 12 hours at room temperature.
Two test panels are prepared for each candidate marine antifoulant compound. Two control test panels are also prepared by only treating with the resinous latex binder. One test panel of each candidate marine […] compound is attached over a white background to the topside of an exposure support apparatus. The second test panel is attached over a black background to the underside of the exposure support apparatus. The exposure support apparatus is placed horizontally 0.0254 m under a marine surface with the white background topside facing up.
After being removed from the exposure support apparatus, each test panel is inspected and rated for marine organism growth on both the treated and untreated areas of the test panel, The marine organisms present on the treated and untreated areas are noted. The presence of algae spores and bacterial slime are noted but not included in rating each test panel. The test panels are rated on a scale from 10 (representing completely free of marine organism growth) to 0 (representing completely covered with marine organism growth).
In addition, test panels were prepared using tributyl tin oxide, a known marine antifouling compound.

A further assay concerns Aspergillus niger (An). Nature of the assay: Minimum inhibitory concentration (MIC) in malt yeast agar, Aspergillus niger. Format: cell-based. Conditions: 72 h, pH 5.5, read-out: Minimum Inhibitory Concentration, An. A digest of the protocol:
(§1)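 Malt yeast agar pH 5.5 + cpd (from 1% soln in acetone/water) at final 500–zero ppm, poured at 48 °C, dried 24 h. Inoculum: 7-day 30 °C slants suspended in saline/octylphenoxy polyethoxy ethanol, diluted 1:9, replicator-spotted. Incubated 30 °C; read 48 h yeast, 72 h fungi.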

Assay [2] concerns Penicillium chrysogenum (Pc). Nature of the assay: Minimum inhibitory concentration (MIC) in malt yeast agar, Penicillium chrysogenum. The assay is classed as cell-based. As to conditions: 72 h, pH 5.5, read-out: Minimum Inhibitory Concentration, PC. An outline of the steps: as §1
The mark [3] stands for this setting: pH 6.8, nutrient agar, 30° C., 48 hours, read-out: Minimum Inhibitory Concentration, Kp.

On to `N#CSc1nsnc1-c1ccccc1` [Example I, 4-Phenyl-3-thiocyanato-1,2,5-thiadiazole], for which the MIC in assay [1] (48 h, pH 8.2, read-out: Minimum Inhibitory Concentration, Kp) was found to be 500 µg/mL (≈ 2280 µM). In assay [1] (setting [3]), the MIC was found to be 25 µg/mL (≈ 114 µM). In the assay with marine organisms, the “Marine Antifouling Rating, 6 Week Test, Top Panel” value amounted to 7; the “Marine Antifouling Rating, 6 Week Test, Bottom Panel” value was found to be 7; the “Marine Antifouling Rating, 10 Week Test, Top Panel” value is recorded as 4; the “Marine Antifouling Rating, 10 Week Test, Bottom Panel” value is given as 3.

For the compound `N#CSCSc1nsnc1-c1ccccc1` [Example XVI, 4-Phenyl-3-thiocyanato-methylthio-1,2,5-thiadiazole], the MIC in assay [1] (setting [3]) worked out at 25 µg/mL (≈ 94.2 µM); in assay [1] (pH 8.2, nutrient agar, 30° C., 48 hours, read-out: Minimum Inhibitory Concentration, Kp), 100 µg/mL (≈ 377 µM); in the assay with Aspergillus niger (An) it was 2.5 µg/mL (≈ 9.42 µM); in assay [2] it was 2.5 µg/mL (≈ 9.42 µM). For the same compound, in the assay on marine organisms, the “Marine Antifouling Rating, 6 Week Test, Top Panel” value turned out to be 9. In addition, the “Marine Antifouling Rating, 6 Week Test, Bottom Panel” value in the assay on marine organisms worked out at 9. The “Marine Antifouling Rating, 10 Week Test, Top Panel” value in the assay on marine organisms is listed as 4. In addition, the “Marine Antifouling Rating, 10 Week Test, Bottom Panel” value in the assay on marine organisms was found to be 9.
